From patent US11458138B2 (Novartis AG, priority 2017, dated 2022)

Legend:
LATS1 = LATS1 (Homo sapiens (Human), UniProt O95835); assay: LATS1 biochemical assay (Table 1A, Compound Examples 1-290; method in the earlier part)
[1] = test system: YAP nuclear translocation in HaCaT cells; assay: YAP Translocation Assay (HaCaT Cells); type: cell-based, human; settings: 24 hours
Description: HaCaT cells were suspended at 0.4×10^6 cells/ml in DMEM+10% FBS with penicillin-streptomycin-glutamine. 50 μl of cells were dispensed into 384-well clear bottom assay plates (20,000 cells/well), and incubated overnight at 37° C. 100 nL test compound was transferred into the assay wells containing HaCaT cells using ECHO (Labcyte). After 24 hours incubation at 37° C., 7 μL of 32% PFA was dispensed into each well and incubated for 45 minutes at room temperature. Plates were washed 3 times with PBS, leaving 20 μL of PBS per well, then treated with 0.1% Triton and 1.5% BSA in PBS for 45 minutes at room temperature. Plates were washed for 5 times with PBS, leaving 20 μL of PBS per well. […] Plates were further washed 3 time with PBS, sealed and imaged on the high-content Opera imaging system (PerkinElmer).

[2] = test system: Phospho-YAP (SER127) in HaCaT cells; assay: pYAP HTRF Assay (HaCaT Cells); type: cell-based, human; settings: 2 hours
Description: The pYAP HTRF assay was performed using the Phospho-YAP (SER127) 10000 test kit (CisBio, catalogue number 64YAPPEH) according to manufacturer's instructions. Briefly, HaCaT cells were suspended at 1.1×10^6 cells/mL in DMEM (no phenol red)+10% FBS with penicillin-streptomycin-glutamine. 5 μL of cells were dispensed into 1536 well white solid bottom, tissue culture treated plates (5500 cells/well), and incubated for 48 hours at 37° C. 50 nL test compound was transferred into the assay plates containing HaCaT cells using Pintool (GNF) and incubated for 2 hours. […] The plates were incubated overnight (20 hrs) at room temperature covered with metal lids. Plates were read on Pherastar (BMG Labtech) for HTRF (665 nm/620 nm).

LATS1, sequence (O95835 whole entry, looked up): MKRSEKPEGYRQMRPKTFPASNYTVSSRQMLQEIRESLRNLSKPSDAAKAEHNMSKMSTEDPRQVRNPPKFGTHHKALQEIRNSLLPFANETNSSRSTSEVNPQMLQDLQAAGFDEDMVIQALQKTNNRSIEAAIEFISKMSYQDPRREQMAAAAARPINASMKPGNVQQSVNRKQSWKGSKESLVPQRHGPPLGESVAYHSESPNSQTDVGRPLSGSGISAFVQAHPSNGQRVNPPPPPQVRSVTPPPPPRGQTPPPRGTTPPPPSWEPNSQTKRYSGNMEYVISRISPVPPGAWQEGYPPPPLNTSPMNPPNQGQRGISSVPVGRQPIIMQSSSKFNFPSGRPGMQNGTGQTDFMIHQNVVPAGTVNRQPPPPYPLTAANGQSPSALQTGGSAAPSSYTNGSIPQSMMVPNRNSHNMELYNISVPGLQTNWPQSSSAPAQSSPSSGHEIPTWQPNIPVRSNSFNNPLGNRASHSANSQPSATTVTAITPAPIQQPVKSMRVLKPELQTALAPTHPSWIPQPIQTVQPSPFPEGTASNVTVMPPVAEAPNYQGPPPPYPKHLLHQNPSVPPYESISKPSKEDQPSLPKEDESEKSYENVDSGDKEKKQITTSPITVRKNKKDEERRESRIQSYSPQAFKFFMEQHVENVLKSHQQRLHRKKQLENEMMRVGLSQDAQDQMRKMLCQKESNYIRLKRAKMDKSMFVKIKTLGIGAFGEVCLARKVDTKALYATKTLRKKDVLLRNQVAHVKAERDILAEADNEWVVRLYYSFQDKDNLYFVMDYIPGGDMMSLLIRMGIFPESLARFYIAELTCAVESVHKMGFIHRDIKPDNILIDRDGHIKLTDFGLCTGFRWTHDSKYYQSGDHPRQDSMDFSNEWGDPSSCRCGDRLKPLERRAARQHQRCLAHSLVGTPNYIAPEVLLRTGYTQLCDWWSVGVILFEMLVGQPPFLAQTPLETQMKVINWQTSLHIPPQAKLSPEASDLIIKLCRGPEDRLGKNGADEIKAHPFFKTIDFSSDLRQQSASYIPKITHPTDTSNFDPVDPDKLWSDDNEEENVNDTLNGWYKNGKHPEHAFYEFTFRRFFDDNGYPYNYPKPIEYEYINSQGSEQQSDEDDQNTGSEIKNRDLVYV
LATS1, sequence (Q7L9L4 whole entry partner, looked up): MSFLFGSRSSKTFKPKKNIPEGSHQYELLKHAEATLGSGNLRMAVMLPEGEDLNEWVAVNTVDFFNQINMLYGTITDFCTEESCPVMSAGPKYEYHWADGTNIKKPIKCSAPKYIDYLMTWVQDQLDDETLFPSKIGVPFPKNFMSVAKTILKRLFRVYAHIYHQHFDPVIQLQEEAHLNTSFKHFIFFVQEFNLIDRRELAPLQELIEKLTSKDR

Row | Structure (SMILES) | IC50 (LATS1) [nM] | EC50 ([1]; Homo sapiens) [nM] | IC50 ([2]; Homo sapiens) [nM] | EC50 [1] [nM] | IC50 [2] [nM]
1 | C[C@H]1CCC[C@H]1Nc1nc(-c2ccncc2)nc2cnccc12 (single isomer, unassigned) [Example 17a] | 3 | 4100 | 4950 | – | –
2 | C[C@@H]1CCC[C@@H]1Nc1nc(-c2ccncc2)nc2cnccc12 (single isomer, unassigned) [Example 17b] | 0.9 | 1220 | 765 | – | –
3 | CC1CCCC1Nc1nc(-c2ccncc2)nc2cnccc12 (single isomer, unassigned) [Example 17c] | 3 | – | – | 4680 | 4280
4 | CC1CCCC1Nc1nc(-c2ccncc2)nc2cnccc12 (single isomer, unassigned) [Example 17d] | 1 | – | – | 1720 | 402
5 | CC(C)(Nc1nc(-c2ccncc2)nc2cnccc12)C1CC1 [Example 1, N-(2-cyclopropylpropan-2-yl)-2-(pyridin-4-yl)pyrido[3,4-d]pyrimidin-4-amine] | 1 | 326 | 19 | – | –
6 | CCCCN(C)c1nc(-c2ccncc2)nc2cnccc12 [Example 9, N-butyl-N-methyl-2-(pyridin-4-yl)pyrido[3,4-d]pyrimidin-4-amine] | 3 | 2420 | 2100 | – | –
7 | CCNc1nc(-c2ccncc2)nc2cnccc12 [Example 13, N-ethyl-2-(pyridin-4-yl)pyrido[3,4-d]pyrimidin-4-amine] | 4 | 8510 | 13400 | – | –
8 | CC1(Nc2nc(-c3ccncc3)nc3cnccc23)COC1 [Example 16, N-(3-methyloxetan-3-yl)-2-(pyridin-4-yl)pyrido[3,4-d]pyrimidin-4-amine] | 5 | 15800 | 9790 | – | –
9 | CC(O)C(C)(C)Nc1nc(-c2ccncc2)nc2cnccc12 (centres unmarked) [Example 18, 3-methyl-3-{[2-(pyridin-4-yl)pyrido[3,4-d]pyrimidin-4-yl]amino}butan-2-ol] | 6 | 3460 | 1520 | – | –
10 | CCCCNc1nc(-c2ccncc2)nc2cnccc12 [Example 19, N-butyl-2-(pyridin-4-yl)pyrido[3,4-d]pyrimidin-4-amine] | 6 | 17600 | 24800 | – | –
11 | c1cc(-c2nc(NC3CC3)c3ccncc3n2)ccn1 [Example 21, N-cyclopropyl-2-(pyridin-4-yl)pyrido[3,4-d]pyrimidin-4-amine] | 7 | 8810 | 19200 | – | –
12 | CC(CO)(CO)Nc1nc(-c2ccncc2)nc2cnccc12 [Example 23, 2-methyl-2-{[2-(pyridin-4-yl)pyrido[3,4-d]pyrimidin-4-yl]amino}propane-1,3-diol] | 10 | 11800 | 9580 | – | –
13 | CC(O)C(C)Nc1nc(-c2ccncc2)nc2cnccc12 (centres unmarked) [Example 24, 3-{[2-(pyridin-4-yl)pyrido[3,4-d]pyrimidin-4-yl]amino}butan-2-ol] | 17 | 33100 | 34700 | – | –
14 | CS(=O)(=O)CCNc1nc(-c2ccncc2)nc2cnccc12 [Example 41, N-(2-methanesulfonylethyl)-2-(pyridin-4-yl)pyrido[3,4-d]pyrimidin-4-amine] | 708 | > 20000 | > 10000 | – | –
15 | OCC1(Nc2nc(-c3ccncc3)nc3cnccc23)CCCC1 [Example 51, (1-{[2-(pyridin-4-yl)pyrido[3,4-d]pyrimidin-4-yl]amino}cyclopentyl)methanol] | 6 | 4390 | 57800 | – | –
16 | COC1CC(Nc2nc(-c3ccncc3)nc3cnccc23)C1 (centres unmarked) [Example 52, N-(3-methoxycyclobutyl)-2-(pyridin-4-yl)pyrido[3,4-d]pyrimidin-4-amine] | 12 | > 20000 | 11300 | – | –
17 | CCOC(=O)C1(Nc2nc(-c3ccncc3)nc3cnccc23)CCC1 [Example 55, ethyl 1-{[2-(pyridin-4-yl)pyrido[3,4-d]pyrimidin-4-yl]amino}cyclobutane-1-carboxylate] | 460 | > 20000 | > 10000 | – | –
18 | CCC(C)(C)Nc1nc(-c2ccncc2)nc2cnccc12 [Example 63, N-(2-methylbutan-2-yl)-2-(pyridin-4-yl)pyrido[3,4-d]pyrimidin-4-amine] | 1 | 338 | 131 | – | –
19 | C#CC(C)(C)Nc1nc(-c2ccncc2)nc2cnccc12 [Example 69, N-(2-methylbut-3-yn-2-yl)-2-(pyridin-4-yl)pyrido[3,4-d]pyrimidin-4-amine] | 3 | 11500 | 4720 | – | –
20 | CC1(Nc2nc(-c3ccnc4[nH]ccc34)nc3cnccc23)CC1 [Example 154, N-(1-methylcyclopropyl)-2-{1H-pyrrolo[2,3-b]pyridin-4-yl}pyrido[3,4-d]pyrimidin-4-amine] | – | 1060 | 2530 | – | –

More lines, main results first:

Row | IC50 (LATS1) [nM] | Structure (SMILES) | EC50 ([1]; Homo sapiens) [nM] | IC50 ([2]; Homo sapiens) [nM] | EC50 [1] [nM] | IC50 [2] [nM]
21 | 1 | CC[C@H](C)Nc1nc(-c2ccncc2)nc2cnccc12 (single isomer, unassigned) [Example 68a] | 1680 | 1430 | – | –
22 | 2 | CC[C@@H](C)Nc1nc(-c2ccncc2)nc2cnccc12 (single isomer, unassigned) [Example 68b] | 2920 | 4270 | – | –
23 | 6 | CC(C)(CCc1ccccc1)Nc1nc(-c2ccncc2)nc2cnccc12 [Example 20, N-(2-methyl-4-phenylbutan-2-yl)-2-(pyridin-4-yl)pyrido[3,4-d]pyrimidin-4-amine] | 5180 | 1770 | – | –
24 | 7 | CC(C)(CCS(C)(=O)=O)Nc1nc(-c2ccncc2)nc2cnccc12 [Example 22, N-(4-methanesulfonyl-2-methylbutan-2-yl)-2-(pyridin-4-yl)pyrido[3,4-d]pyrimidin-4-amine] | 13000 | 11400 | – | –
25 | 31 | O[C@@H]1CCC[C@@H]1Nc1nc(-c2ccncc2)nc2cnccc12 [Example 26, (1R,2S)-2-{[2-(pyridin-4-yl)pyrido[3,4-d]pyrimidin-4-yl]amino}cyclopentan-1-ol] | > 100000 | 54600 | – | –
26 | 47 | COC(=O)C(C)(C)Nc1nc(-c2ccncc2)nc2cnccc12 [Example 32, Methyl 2-methyl-2-{[2-(pyridin-4-yl)pyrido[3,4-d]pyrimidin-4-yl]amino}propanoate] | > 20000 | > 10000 | – | –
27 | 240 | FC(F)(F)C(Cc1ccccc1)Nc1nc(-c2ccncc2)nc2cnccc12 (centres unmarked) [Example 38, 2-(pyridin-4-yl)-N-(1,1,1-trifluoro-3-phenylpropan-2-yl)pyrido[3,4-d]pyrimidin-4-amine] | > 20000 | > 10000 | – | –
28 | > 2500 | O=C(O)CC(Nc1nc(-c2ccncc2)nc2cnccc12)C(F)(F)F (centres unmarked) [Example 44, 4,4,4-trifluoro-3-{[2-(pyridin-4-yl)pyrido[3,4-d]pyrimidin-4-yl]amino}butanoic acid] | > 20000 | > 10000 | – | –
29 | 1160 | O=C(O)C1(Nc2nc(-c3ccncc3)nc3cnccc23)CCC1 [Example 56, 1-{[2-(pyridin-4-yl)pyrido[3,4-d]pyrimidin-4-yl]amino}cyclobutane-1-carboxylic acid] | > 20000 | > 10000 | – | –
